In test [1] the test system is transgenic mouse model of brain amyloidosis. As to conditions: vaccinated transgenic mice; cited from earlier work.
Test [2] can be described thus: Immunization of rabbits with KLVFFA peptide, antibody titers. Type of test: in vivo. To be noted: rabbits immunized, KLH-conjugated peptide, FIG. 7. The procedure: Rabbits were immunized with all-D or all-L KLVFFA.
Standard assays for fibrillogenesis were used to evaluate activity, such as those based on Thioflavine T, circular dichroism and solubility.
Rabbits were immunized with D- or L-Aβ (16-21) peptide. Antibodies raised were tested for their antifibrillogenic activities by ThT assay and by electron microscopy (EM).

The source of these data is patent publication US20070264276A1, “Vaccine for the prevention and treatment of Alzheimer's and amyloid related diseases” (priority 1999, published 2007).

Square brackets hold non-standard residues; d marks the D form. Ends that are not written are not given here.

As for “human aggregated all-L peptide: human aggregated all-L Aβ peptide used as immunogen in the vaccine of Schenk et al. (1999)”, in test [1], the “formation of β-amyloid plaque, astrogliosis and neuritic dystrophy” value is “prevented the formation of β-amyloid plaque, astrogliosis and neuritic dystrophy”. For “Aβ (16-21, all-D) ([dK][dL][dV][dF][dF][dA]) [all-D KLVFFA, KLVFFA]”, the results for the “production of antibodies (antibody titers)” value in test [2] and in test [2] (listed as Aβ 16-21 (all-D)) were “causes production of antibodies” and “antibodies can be raised”, respectively.
